# Reference: patent US20240343740A1, “MACROCYCLIC GLUCAGON-LIKE PEPTIDE 1 RECEPTOR AGONISTS” (Eli Lilly and Company, priority 2021, published 2024)
# Where two headings read alike, the source gives them in different places.
# Experiments:
# [1] = cc_pd bond
# [2] = cc_pd bond, 14-membered ring, 110.0 °C, 15.0 h
# human GLP-1R [3] = molecular target: T1, human GLP-1R (Homo sapiens, UniProt P43220); experiment: GLP-1R CHO cell β-arrestin recruitment assay (PathHunter); format: cell-based; design: host or cells: CHO-K1; details: for EC50: CHO-K1 cells expressing Pro-Link-tagged Human GLP-1R and enzyme-acceptor-tagged β-arrestin-2, read-out: EC50 nM (SEM, n), hGLP1R induced β-Arrestin-2 recruitment relative EC50; for Emax: CHO-K1 cells, % stimulation with DMSO and GLP-1(7-36) as minimum and maximum controls, read-out: Emax % (SEM, n), hGLP1R induced β-Arrestin-2 recruitment
# Description: GLP-1R CHO Cell β-Arrestin Recruitment Assay
# Activated G-protein coupled receptors can interact with the β-arrestin family of signaling proteins. The potency of compounds for GLP-1R induced arrestin recruitment is determined using the PathHunter Enzyme Fragment Complementation approach substantially as described (von Degenfeld et al., FASEB J., 2007 (14):3819-26 and Hamdouchi et al., J. Med Chem., 2016 59(24):10891-10916). CHO-K1 cells expressing Pro-Link-tagged Human GLP-1R and enzyme-acceptor-tagged β-arrestin-2 may be obtained from DiscoveRx and prepared as assay-ready frozen cells. Test compounds are solubilized in DMSO and serial dilutions are performed using the Echo acoustic dispenser (LabCyte). Assay media is the PathHunter Cell Assay Buffer (DiscoveRx) containing 0.1% w/v hydrolyzed Casein (Sigma). 100 nL of test compound solution is dispensed into 10 μL of assay media in a 384 well plate and then 10 μL of cells in assay media are added to give 5000 cells per well. Plates are incubated for 90 min in a 37° C./5% CO2 incubator and 10 μL of PathHunter detection reagent is added (DiscoveRx) and plates are incubated at RT for 60 min. Luminescence signal is measured. Compound concentration-response curves fit to a four-parameter logistic model to calculate potency as an EC50 and percent top (Emax). Data normalization to % stimulation is performed using DMSO and GLP-1(7-36) as minimum and maximum controls (Campbell et al, Assay Guidance Manual 2017).
# Target sequence in this assay (P43220 24-463): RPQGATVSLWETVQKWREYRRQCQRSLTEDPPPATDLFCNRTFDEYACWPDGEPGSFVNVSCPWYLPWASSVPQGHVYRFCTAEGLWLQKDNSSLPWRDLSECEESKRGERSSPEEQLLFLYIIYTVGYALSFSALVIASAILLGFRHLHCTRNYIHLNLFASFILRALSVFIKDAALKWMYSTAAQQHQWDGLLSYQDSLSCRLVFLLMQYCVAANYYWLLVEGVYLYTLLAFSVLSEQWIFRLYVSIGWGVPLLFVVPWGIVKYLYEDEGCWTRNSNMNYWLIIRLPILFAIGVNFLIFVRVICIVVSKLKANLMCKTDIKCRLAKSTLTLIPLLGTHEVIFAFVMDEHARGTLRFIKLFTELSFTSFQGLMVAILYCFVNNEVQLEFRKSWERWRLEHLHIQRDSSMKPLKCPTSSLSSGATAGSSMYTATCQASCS
# Target sequence in this assay (P32121 whole entry partner): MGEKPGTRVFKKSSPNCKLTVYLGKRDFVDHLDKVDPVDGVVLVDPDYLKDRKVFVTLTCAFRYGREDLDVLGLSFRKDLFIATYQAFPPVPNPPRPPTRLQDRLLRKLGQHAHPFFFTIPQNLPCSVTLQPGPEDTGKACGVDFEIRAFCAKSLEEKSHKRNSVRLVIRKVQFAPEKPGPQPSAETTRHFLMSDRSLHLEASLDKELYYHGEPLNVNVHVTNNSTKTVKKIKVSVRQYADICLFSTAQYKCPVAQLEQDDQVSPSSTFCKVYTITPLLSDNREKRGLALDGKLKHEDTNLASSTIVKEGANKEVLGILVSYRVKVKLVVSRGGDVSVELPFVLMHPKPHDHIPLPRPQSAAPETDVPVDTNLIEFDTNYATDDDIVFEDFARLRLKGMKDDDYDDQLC
# human GLP-1R [4] = molecular target: T1, human GLP-1R; experiment: Human GLP-1 Receptor HEK293 cell cAMP assay, 104 fmol/mg GLP-1R expression density; format: cell-based; design: expressed in transfected cells; host or cells: HEK293 clonal cell line; details: HEK293 cell line with 104 fmol/mg expression density of GLP-1R; for EC50: geometric mean, read-out: EC50 nM (SEM, n), intracellular cAMP response, relative EC50; for Emax: percent of maximal response to GLP-1(7-36)NH2, arithmetic mean, read-out: Emax % (SEM, n), intracellular cAMP response
# In short: (§1)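 HEK293 clonal lines expressing human GLP-1R, 20-point compound curves, 30 min at 37° C in DMEM with 0.1% casein, 250 μM IBMX, 0.5% DMSO. cAMP by HTRF, converted via standard curve to % of maximal human GLP-1(7-36)NH2 response; relative EC50 and Emax from four-parameter logistic fit.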
# Target sequence in this assay (P43220 24-463): as the sequence (P43220 24-463) above
# human GLP-1R [5] = molecular target: T1, human GLP-1R; experiment: Human GLP-1 Receptor HEK293 cell cAMP assay, 581 fmol/mg GLP-1R expression density; format: cell-based; design: expressed in transfected cells; host or cells: HEK293 clonal cell line; details: HEK293 cell line with 581 fmol/mg expression density of GLP-1R; for EC50: geometric mean, read-out: EC50 nM (SEM, n), intracellular cAMP response, relative EC50; for Emax: percent of maximal response to GLP-1(7-36)NH2, arithmetic mean, read-out: Emax % (SEM, n), intracellular cAMP response
# In short: as §1
# Target sequence in this assay (P43220 24-463): as above
structure (smiles),measurement,setting,value
COC(=O)Cc1ccc2cc1OCCCc1cc(Cl)ccc1COc1cccc-2n1,"ring closure, isolated yield","[1]; from COC(=O)Cc1ccc(B2OC(C)(C)C(C)(C)O2)cc1OCCCc1cc(Cl)ccc1COc1cccc(Br)n1, 14-membered ring, XPhos Pd G2/K3PO4, THF/water, 9.2 mM, 40.0 °C, 15.0 h",74%
FC(F)(F)c1cc2c(cn1)COc1cccc(n1)-c1ccc(Cl)c(c1)COCC2,"ring closure, yield after HPLC","[2]; from FC(F)(F)c1cc(CCOCc2cc(Br)ccc2Cl)c(COc2cccc(Br)n2)cn1, XPhos Pd G3",14%
CCOC(=O)Cc1cc(F)c2cc1COCc1cc(Cl)ccc1COc1cccc-2n1,"ring closure, isolated yield","[1]; from CCOC(=O)Cc1cc(F)c(Br)cc1COCc1cc(Cl)ccc1COc1cccc(Cl)n1, 13-membered ring, B2neo2/KOPiv/XPhos Pd G2, then K3PO4, THF, then THF/water, 25.0 mM, 55.0 °C, 5.25 h, 2 steps",32%
"COc1cc(-c2nnn[nH]2)cc2c1nc(Cc1ccc3cc1OCCCc1cc(C#N)ccc1COc1cccc-3n1)n2C[C@@H]1CCO1 [Example 12, (S)-1^4-((4-Methoxy-1-(oxetan-2-ylmethyl)-6-(1H-tetrazol-5-yl)-1H-benzo[d]imidazol-2-yl)methyl)-3,9-dioxa-2(2,6)-pyridina-1(1,3),5(1,2)-dibenzenacyclononaphane-5^4-carbonitrile]",EC50,human GLP-1R [3],> 49500 nM
same,Emax,human GLP-1R [3],9.47%
same,EC50,human GLP-1R [4],66.3 nM
same,Emax,human GLP-1R [4],46.4%
same,EC50,human GLP-1R [5],20.2 nM
same,Emax,human GLP-1R [5],81.8%
COC(=O)Cc1ccc2cc1COCCc1cc(C#N)ccc1COc1ccnc-2n1,"ring closure, isolated yield","[1]; from COC(=O)Cc1ccc(B2OC(C)(C)C(C)(C)O2)cc1COCCc1cc(C#N)ccc1COc1ccnc(Cl)n1, 14-membered ring, XPhos Pd G2/K3PO4, THF/water, 36.0 mM, 50.0 °C, 6.0 h",22%
"N#Cc1ccc2c(c1)CCCOc1cc(c(F)cc1Cc1nc3c(F)cc(C(=O)O)cc3n1C[C@@H]1CCO1)-c1cccc(n1)OC2 [Example 2, (S)-2-((5^4-Cyano-1^6-fluoro-3,9-dioxa-2(2,6)-pyridina-1(1,3),5(1,2)-dibenzenacyclononaphane-1^4-yl)methyl)-4-fluoro-1-(oxetan-2-ylmethyl)-1H-benzo[d]imidazole-6-carboxylic acid]",EC50,human GLP-1R [3],133 nM
same,Emax,human GLP-1R [3],52.7%
same,EC50,human GLP-1R [4],17.5 nM
same,Emax,human GLP-1R [4],72%
same,EC50,human GLP-1R [5],8.05 nM
same,Emax,human GLP-1R [5],98%
CCOC(=O)Cc1cc(F)c2cc1CCOc1cc(C#N)ccc1COc1cccc-2n1,"ring closure, isolated yield","[1]; from CCOC(=O)Cc1cc(F)c(Br)cc1CCOc1cc(C#N)ccc1COc1cccc(Br)n1, 13-membered ring, Me6Sn2/Pd(dppf)Cl2, 1,4-dioxane, 50.0 mM, 100.0 °C, 3.0 h",41%
"N#Cc1ccc2c(c1)CCCOc1cc(c(F)cc1Cc1nc3ccc(C(=O)O)cc3n1C[C@@H]1CCO1)-c1cccc(n1)OC2 [Example 1, (S)-2-((5^4-Cyano-1^6-fluoro-3,9-dioxa-2(2,6)-pyridina-1(1,3),5(1,2)-dibenzenacyclononaphane-1^4-yl)methyl)-1-(oxetan-2-ylmethyl)-1H-benzo[d]imidazole-6-carboxylic acid]",EC50,human GLP-1R [3],213 nM
same,Emax,human GLP-1R [3],42.9%
same,EC50,human GLP-1R [4],59.7 nM
same,Emax,human GLP-1R [4],71%
same,EC50,human GLP-1R [5],19.8 nM
same,Emax,human GLP-1R [5],95%
CCOC(=O)Cc1cc(F)c2cc1COCCc1cc(C#N)ccc1COc1ccc(F)c-2n1,"ring closure, yield after HPLC","[2]; from CCOC(=O)Cc1cc(F)c(Br)cc1COCCc1cc(C#N)ccc1COc1ccc(F)c(Br)n1, XPhos Pd G3/Me3SnSnMe3/CsF, 1,4-dioxane, 11.4 mM",29%
COC(=O)Cc1ccc2cc1OCCCc1cc(C#N)ccc1COc1cccc-2n1,"ring closure, isolated yield","[1]; from COC(=O)Cc1ccc(B2OC(C)(C)C(C)(C)O2)cc1OCCCc1cc(C#N)ccc1COc1cccc(Br)n1, 14-membered ring, XPhos Pd G2/K3PO4, THF/water, 57.0 mM, 45.0 °C, 2.25 h",82%
CCOC(=O)Cc1cc(F)c2cc1OCCCc1cc(ccc1C#N)COc1cccc-2n1,"ring closure, isolated yield","[1]; from CCOC(=O)Cc1cc(F)c(B2OC(C)(C)C(C)(C)O2)cc1OCCCc1cc(COc2cccc(Br)n2)ccc1C#N, 15-membered ring, PdCl2(dtbpf)/K3PO4, 1,4-dioxane/water, 27.0 mM, 50.0 °C, 0.25 h",38%
CCOC(=O)Cc1cc(F)c2cc1CCOCc1cc(ccc1Cl)COc1cccc-2n1,"ring closure, isolated yield","[1]; from CCOC(=O)Cc1cc(F)c(B2OC(C)(C)C(C)(C)O2)cc1CCOCc1cc(COc2cccc(Cl)n2)ccc1Cl, 15-membered ring, XPhos Pd G2/K3PO4, THF/water, 27.0 mM, 60.0 °C, 1.5 h",20%
CCOC(=O)Cc1cc(F)c2cc1OCCCc1cc(C#N)ccc1CNc1cccc-2n1,"ring closure, isolated yield","[1]; from CCOC(=O)Cc1cc(F)c(B2OCC(C)(C)CO2)cc1OCCCc1cc(C#N)ccc1CNc1cccc(Br)n1, 14-membered ring, PdCl2(dtbpf)/K3PO4, 1,4-dioxane/water, 43.0 mM, 70.0 °C, 2.0 h",49%
CCOC(=O)Cc1cc(F)c2cc1COCCc1cc(Cl)cc(F)c1COc1cccc-2n1,"ring closure, isolated yield","[1]; from CCOC(=O)Cc1cc(F)c(Br)cc1COCCc1cc(Cl)cc(F)c1COc1cccc(Cl)n1, 14-membered ring, B2pin2/KOPiv/XPhos Pd G2, then K3PO4, THF/water, 24.0 mM, 55.0 °C, 6.0 h, 2 steps",27%
"O=C(O)c1ccc2nc(Cc3ccc4cc3OCCCc3cc(Cl)ccc3COc3cccc-4n3)n(C[C@@H]3CCO3)c2c1 [Example 3, (S)-2-((5^4-Chloro-3,9-dioxa-2(2,6)-pyridina-1(1,3),5(1,2)-dibenzenacyclononaphane-1^4-yl)methyl)-1-(oxetan-2-ylmethyl)-1H-benzo[d]imidazole-6-carboxylic acid]",EC50,human GLP-1R [3],320 nM
same,Emax,human GLP-1R [3],34%
same,EC50,human GLP-1R [4],132 nM
same,Emax,human GLP-1R [4],84%
same,EC50,human GLP-1R [5],44.1 nM
same,Emax,human GLP-1R [5],102%
CCOC(=O)Cc1cc(F)c2cc1OCCCc1cc(C#N)ccc1COc1cccc-2n1,"ring closure, isolated yield","[1]; from CCOC(=O)Cc1cc(F)c(Br)cc1OCCCc1cc(C#N)ccc1COc1cccc(Br)n1, 14-membered ring, Me6Sn2/Pd(PPh3)4, 1,4-dioxane, 23.0 mM, 90.0 °C, 60.0 h",47%
CCOC(=O)Cc1cc(F)c2cc1OCCOc1cc(C#N)ccc1COc1cccc-2n1,"ring closure, isolated yield","[1]; from CCOC(=O)Cc1cc(F)c(Br)cc1OCCOc1cc(C#N)ccc1COc1cccc(Br)n1, 14-membered ring, B2pin2/KOAc/Pd(dppf)Cl2, then PdCl2/XPhos/K3PO4, THF/water, 8.9 mM, 45.0 °C, 16.0 h, 2 steps",32%
CCOC(=O)Cc1cc(F)c2cc1OCCCc1cc(C#N)cnc1COc1cccc-2n1,"ring closure, isolated yield","[1]; from CCOC(=O)Cc1cc(F)c(Br)cc1OCCCc1cc(C#N)cnc1COc1cccc(Br)n1, 14-membered ring, Me6Sn2/CsF/XPhos Pd G2, 1,4-dioxane, 22.0 mM, 100.0 °C, 18.0 h",49%
COC(=O)Cc1ccc2cc1COCCc1cc(ccc1C#N)COc1cccc-2n1,"ring closure, isolated yield","[1]; from COC(=O)Cc1ccc(B2OC(C)(C)C(C)(C)O2)cc1COCCc1cc(COc2cccc(Cl)n2)ccc1C#N, 15-membered ring, XPhos Pd(crotyl)Cl/K3PO4, THF/water, 33.0 mM, 50.0 °C, 0.83 h",61%
CCOC(=O)Cc1ccc2cc1COCC(F)(F)c1cc(C#N)ccc1COc1cccc-2n1,"ring closure, isolated yield","[1]; from CCOC(=O)Cc1ccc(Br)cc1COCC(F)(F)c1cc(C#N)ccc1COc1cccc(Br)n1, 14-membered ring, B2pin2/KOAc/Pd(dppf)Cl2, then XPhos Pd G2/K3PO4, 1,4-dioxane/water, 55.0 mM, 60.0 °C, 2.0 h, 2 steps",21%
CCOC(=O)Cc1cc(F)c2cc1CCOCc1cc(C#N)ccc1COc1cccc-2n1,"ring closure, isolated yield","[1]; from CCOC(=O)Cc1cc(F)c(B2OC(C)(C)C(C)(C)O2)cc1CCOCc1cc(C#N)ccc1COc1cccc(Cl)n1, 14-membered ring, XPhos Pd G2/K3PO4, THF/water, 25.0 mM, 70.0 °C, 0.5 h",34%
